According to US8440671B2, “Compositions comprising a phoshodiesterase-5 inhibitor and their use in methods of treatment” (priority 2007, dated 2013):

Experiments:
[1] = test system: subject with Alzheimer's Disease and dementia; conditions: for clinical status changes: cholinesterase inhibitor alone
Excerpt: A fifth subject was diagnosed with Alzheimer's Disease and dementia and administered a combination of PI-5, SSRI and CI.

[2] = test system: subject with atypical Parkinson's Disease, severe seborrheic dermatitis and scarring facial acne rosacea; type: in vivo
Excerpt: A third subject was diagnosed with atypical Parkinson's Disease with an initial presentation fifteen years earlier with cogwheel type diffuse tremor of low amplitude, diffuse muscular rigidity, mild bradykinesia, gait abnormalities.
Patient is a non-smoker and social drinker with minimal alcohol consumption and no history of drug abuse. Chronic problems of borderline hypertension (treated with diet and HYTRIN® (terazoin)), benign prostatic hypertrophy (treated with HYTRIN® (terazoin) and voding training), GERD treated intermittently as needed with PRILOSEC® (omeprazole) plus PEPCID® (famotidine) for short periods, DJD of cervical and lumbar spine treated intermittently with physical therapy, TYLENOL® (acetaminophen), occasional VICODIN® (acetaminophen/hydrocodone) as needed.

[3] = test system: subject with Parkinson's Disease; assay: Example 4: case report, subject with Parkinson's Disease given PI-5, SSRI and DI
Excerpt: A fourth subject was diagnosed with Parkinson's Disease and administered a combination of PI-5, SSRI and DI.

[4] = test system: subject with rapidly progressive multi-system neurodegenerative disease, facial acne, vitiligo, gingival infections; type: in vivo; conditions: for clinical response to neurological disease, skin and mucous membrane disorders: each drug given individually; for substitution within the oral combination: Viagra 50 mg TID for oral Cialis, Paxil 20 mg TID for Luvox
Excerpt: A second subject was diagnosed with nonspecific but rapidly progressive multi-system neurodegenerative disease. […] Initial presentation was with abrupt onset dementia with rapid progression over 3-4 months. Severe, generalized myoclonus of high amplitude with ataxia, dyspahagia, central and peripheral respiratory distress (requiring CPAP), dizziness, and hypokinetic rigidity followed some one month later and have continued to progress as well as dementia.
Mild intermittent gingival infections requiring minimal surgical intervention with retraction from tooth line for over ten years.
Patient was a non-smoker with no alcohol or other drug consumption. Patient suffered from coexisting prior problem of chronic atrial fibrillation, currently rate controlled with exercise alone and anticoagulation intermittently with Coumadin.
The twenty four hour doses, put into 7.5 cc of water solution, was also applied topically to scar noted previously. […] Patient also takes Folic acid—1 mg per day, and Vitamin B6.

## COc1cc2c(cc1OC)C(=O)C(CC1CCN(Cc3ccccc3)CC1)C2 (centres unmarked) [ARICEPT® (donepezil), donepezil]
[1]
  clinical status changes: without significant clinical status changes
[1]; two week period, without noticeable changes
  substitution for COGNEX within the combination: successfully substituted

## NC12CC3CC(CC(C3)C1)C2 [Amantadine, amantadine]
[2]; chronic low-dose treatment
  change in seborrheic dermatitis or acne rosacea: No change
  improvement of all symptoms: little or no improvement

## CN1CCc2cccc3c2[C@H]1Cc1ccc(O)c(O)c1-3 [Apomorphine, apomorphine]
[2]; IV, part of work-up
  paradoxical response to IV Apomorphine: decreased blood pressure and worsening of rigidity and tremor

## CC(C)C[C@H]1C(=O)N2CCC[C@H]2[C@]2(O)O[C@](NC(=O)[C@@H]3C=C4c5cccc6[nH]c(Br)c(c56)C[C@H]4N(C)C3)(C(C)C)C(=O)N12 [Bromocriptine, bromocriptine]
[3]; short periods later in disease
  change on short periods of treatment: without significant change

## Nc1c2c(nc3ccccc13)CCCC2 [COGNEX® (tacrine), tacrine]
[1]
  clinical status changes: without significant clinical status changes
[3]; added to Luvox, Cialis, Sinemet regimen
  effect on all symptoms when added to the regimen: mild improvements
[3]; human, in vivo
  tolerability when added to the regimen: discontinued secondary to gastrointestinal upset
[4]
  clinical response to neurological disease, skin and mucous membrane disorders: without any clinical response

## COCCCC/C(=N\OCCN)c1ccc(C(F)(F)F)cc1 [LUVOX® (fluvoxamine), fluvoxamine]
[4]
  clinical response to neurological disease, skin and mucous membrane disorders: without any clinical response

## Fc1ccc([C@@H]2CCNC[C@H]2COc2ccc3c(c2)OCO3)cc1 [Paxil, paroxetine]
[4]
  substitution within the oral combination: equivalently substituted

## CCCc1nn(C)c2c(=O)[nH]c(-c3cc(S(=O)(=O)N4CCN(C)CC4)ccc3OCC)nc12 [VIAGRA® (sildenafil), sildenafil]
[4]
  substitution within the oral combination: equivalently substituted
  clinical response to neurological disease, skin and mucous membrane disorders: without any clinical response
